In US20060134670A1, “Enabling tools to identify ligands for hormone nuclear receptors” (priority 2004, published 2006):

Assays:
LXRβ (NR1H2) = biological target: T1, LXRβ (NR1H2) (Homo sapiens, UniProt P55055); test: R-SAT single receptor format, LXRβ; assay type: cell-based; conditions: NIH-3T3 cells transfected with LXRβ
T1 construct: expressed in transfected cells; host or cells: NIH-3T3
T1 sequence (P55055 1-460): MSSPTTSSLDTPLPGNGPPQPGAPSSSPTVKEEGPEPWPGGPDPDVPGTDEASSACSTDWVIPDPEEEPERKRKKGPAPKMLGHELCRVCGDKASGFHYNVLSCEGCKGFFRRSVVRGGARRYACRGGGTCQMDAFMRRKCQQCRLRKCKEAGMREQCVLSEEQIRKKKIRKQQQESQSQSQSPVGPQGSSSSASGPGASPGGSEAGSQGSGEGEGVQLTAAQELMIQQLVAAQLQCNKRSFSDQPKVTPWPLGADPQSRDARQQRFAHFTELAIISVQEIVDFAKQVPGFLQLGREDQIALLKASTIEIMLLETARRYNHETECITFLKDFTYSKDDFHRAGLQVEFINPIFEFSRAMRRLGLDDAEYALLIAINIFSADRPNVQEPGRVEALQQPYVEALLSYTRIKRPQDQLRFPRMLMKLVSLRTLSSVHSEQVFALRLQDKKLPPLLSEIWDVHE
Text: (§1) Curves were generated using XLFit software ([…]).

LXRα (NR1H3) = biological target: T2, LXRα (NR1H3) (Homo sapiens, UniProt Q13133); test: R-SAT single receptor format, LXRα; assay type: cell-based; conditions: NIH-3T3 cells transfected with LXRα
T2 construct: expressed in transfected cells; host or cells: NIH-3T3
T2 sequence (Q13133 1-447): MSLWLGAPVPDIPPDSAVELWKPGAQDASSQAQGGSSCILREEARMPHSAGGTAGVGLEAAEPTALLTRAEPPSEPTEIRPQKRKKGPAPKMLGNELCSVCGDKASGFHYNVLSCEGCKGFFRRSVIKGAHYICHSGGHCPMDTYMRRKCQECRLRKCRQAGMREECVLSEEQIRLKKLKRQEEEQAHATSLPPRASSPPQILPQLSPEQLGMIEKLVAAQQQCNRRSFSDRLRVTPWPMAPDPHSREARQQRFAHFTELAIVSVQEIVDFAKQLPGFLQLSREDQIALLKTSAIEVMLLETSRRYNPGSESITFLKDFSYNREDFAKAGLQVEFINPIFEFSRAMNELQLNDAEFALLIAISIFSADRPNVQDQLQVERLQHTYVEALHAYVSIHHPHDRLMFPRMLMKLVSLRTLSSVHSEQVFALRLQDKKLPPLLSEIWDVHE
Text: as §1

[1] = biological target: T3, CARα and RXR nuclear receptors (heterodimer) (Homo sapiens, UniProt Q14994); test: R-SAT inverse agonism, CARα/RXR; assay type: cell-based; conditions: cells transfected with CARα and RXR, β-galactosidase activity, FIG. 4A
T3 construct: expressed in transfected cells
T3 sequence (Q14994 1-348 isoform Q14994-2): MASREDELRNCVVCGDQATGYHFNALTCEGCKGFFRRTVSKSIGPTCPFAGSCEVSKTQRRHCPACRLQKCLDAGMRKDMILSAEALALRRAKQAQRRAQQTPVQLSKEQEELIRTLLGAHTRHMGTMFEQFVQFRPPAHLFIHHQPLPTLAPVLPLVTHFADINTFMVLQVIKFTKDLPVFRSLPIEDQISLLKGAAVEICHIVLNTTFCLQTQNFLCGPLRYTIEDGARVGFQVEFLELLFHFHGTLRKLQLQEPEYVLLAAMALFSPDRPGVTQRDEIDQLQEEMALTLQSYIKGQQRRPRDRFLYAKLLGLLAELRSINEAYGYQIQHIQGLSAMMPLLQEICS
T3 sequence (P48443 1-463 partner): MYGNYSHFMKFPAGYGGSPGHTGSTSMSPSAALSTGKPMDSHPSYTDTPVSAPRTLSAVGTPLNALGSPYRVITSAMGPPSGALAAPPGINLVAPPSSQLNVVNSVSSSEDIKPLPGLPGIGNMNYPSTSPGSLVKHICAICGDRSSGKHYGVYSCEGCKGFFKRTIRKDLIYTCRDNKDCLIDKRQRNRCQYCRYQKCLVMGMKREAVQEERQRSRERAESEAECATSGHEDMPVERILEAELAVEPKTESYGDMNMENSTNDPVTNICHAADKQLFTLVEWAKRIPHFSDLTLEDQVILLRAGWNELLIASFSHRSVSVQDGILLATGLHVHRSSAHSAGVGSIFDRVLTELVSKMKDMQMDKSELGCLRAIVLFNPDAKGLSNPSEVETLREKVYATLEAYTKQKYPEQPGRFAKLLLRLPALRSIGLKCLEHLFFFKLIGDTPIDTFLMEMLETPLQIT
Text: as §1

PPARδ (NR1C2) = biological target: T4, PPARδ (NR1C2) (Homo sapiens, UniProt Q03181); test: R-SAT single receptor format, PPARδ; assay type: cell-based; conditions: NIH-3T3 cells transfected with PPARδ
T4 construct: expressed in transfected cells; host or cells: NIH-3T3
T4 sequence (Q03181 1-441): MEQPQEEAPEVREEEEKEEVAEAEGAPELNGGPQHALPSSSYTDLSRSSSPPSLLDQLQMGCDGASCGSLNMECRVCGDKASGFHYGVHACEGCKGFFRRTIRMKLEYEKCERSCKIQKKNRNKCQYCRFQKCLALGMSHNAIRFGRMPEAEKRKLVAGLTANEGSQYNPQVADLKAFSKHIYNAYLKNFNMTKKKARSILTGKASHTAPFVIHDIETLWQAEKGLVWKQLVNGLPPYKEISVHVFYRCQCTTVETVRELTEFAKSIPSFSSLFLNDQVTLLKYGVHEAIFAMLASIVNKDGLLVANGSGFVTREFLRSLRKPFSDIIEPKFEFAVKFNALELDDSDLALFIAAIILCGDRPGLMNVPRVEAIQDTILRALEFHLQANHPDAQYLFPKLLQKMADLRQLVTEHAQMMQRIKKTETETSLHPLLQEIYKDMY
Text: as §1

PXR/RXR heterodimer = biological target: T5, PXR/RXR heterodimer (Homo sapiens, UniProt O75469); conditions: 5 days
T5 sequence (O75469 1-434): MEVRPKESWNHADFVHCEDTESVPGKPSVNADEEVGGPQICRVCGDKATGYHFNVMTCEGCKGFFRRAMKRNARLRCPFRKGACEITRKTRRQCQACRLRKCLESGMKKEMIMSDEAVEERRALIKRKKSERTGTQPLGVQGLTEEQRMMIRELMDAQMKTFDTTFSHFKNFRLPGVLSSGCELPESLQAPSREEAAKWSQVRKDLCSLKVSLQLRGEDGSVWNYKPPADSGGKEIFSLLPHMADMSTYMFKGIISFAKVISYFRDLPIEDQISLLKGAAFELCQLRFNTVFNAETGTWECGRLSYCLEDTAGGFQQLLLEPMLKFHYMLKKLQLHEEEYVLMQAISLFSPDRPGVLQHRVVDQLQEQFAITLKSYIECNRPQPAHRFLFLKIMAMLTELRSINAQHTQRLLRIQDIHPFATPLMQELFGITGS
T5 sequence (P48443 1-463 partner): T3 sequence (P48443 1-463 partner)
Procedure: On day one, cells were trypsinized, centrifuged and plated at 8,000 cells/well in a 96-well plate in 100 μl/well of Dubelcco's Modified Eagle's Medium (DMEM), 10% calf serum. On day two, cells were transfected using the transfection reagent Superfect® (Qiagen, Inc.) as recommended by the manufacturer. Various doses of the nuclear receptor plasmid DNA were transfected. DNA mixtures included 0.1 to 10 ng/well of receptors DNA, 20 to 30 ng/well of β-galactosidase plasmid DNA (pSV β-galactosidase, Promega) and 15 μl of Superfect®. On day three, the media was replaced by DMEM with 2% Cyto-SF3 (Kemp Biotechnologies, Inc.) containing variable amounts of the compounds being tested. […] All data were obtained by measuring the change in absorbance at 420 nm using an automated plate reader. EC50 values were calculated using the equation r=A+B(x/(c+c)), where A=minimum response, B=maximum response minus maximum response, c=EC50, r=response, and x=concentration of ligand. Curves were generated using XLFit software (Microsoft).
The coactivators GRIP1 (Glucocorticoid Receptor Interacting Protein 1) (GenBank U39060) and SRC-1 (Steroid Receptor Coactivator 1) (GenBank U90661) were used in this assay. In summary, plasmid DNA encoding the coactivator(s) were transfected along with the aforementioned transfection mixture (containing the PXR, RXR, and β-Gal plasmid DNAs).

**Q.** For `CC(C)CC[C@@H](O)[C@@H](C)[C@H]1CC[C@H]2[C@@H]3CC=C4C[C@@H](O)CC[C@]4(C)[C@H]3CC[C@]12C` [22(R)OH-Cholesterol], which EC50 (LXRβ (NR1H2)) is on record?
**A.** 3000 to 5000 nM

**Q.** And the EC50 (LXRα (NR1H3))?
**A.** 3000 to 5000 nM

**Q.** Which inverse agonist activity [1] does the source give for `C[C@]12CC[C@@H](O)C[C@@H]1CC[C@@H]1[C@@H]2CC[C@]2(C)C=CC[C@@H]12` [Androstenol] here?
**A.** inverse agonist activity

**Q.** Which EC50 (PPARδ (NR1C2)) does the source give for `CCCCC[C@H](O)/C=C/[C@@H]1[C@H]2C/C(=C/CCCC(=O)O)C[C@H]2C[C@H]1O` [carbaprostacyclin] here?
**A.** 200 to 500 nM

**Q.** With `CO[C@H]1/C=C/O[C@@]2(C)Oc3c(C)c(O)c4c(O)c(c(/C=N/N5CCN(C)CC5)c(O)c4c3C2=O)NC(=O)/C(C)=C\C=C\[C@H](C)[C@H](O)[C@@H](C)[C@@H](O)[C@@H](C)[C@H](OC(C)=O)[C@@H]1C` [rifampicin] as the compound, how does the “efficacy of pharmacological response” value (PXR/RXR heterodimer) read?
**A.** 5-10%
